# Measured values: patent publication US11612586B2, “Indole regulation of antigen presenting cells” (THE TEXAS A&M UNIVERSITY SYSTEM, priority 2016, dated 2023)
# Experiments:
# HeLa cells = assay: Salmonella invasion of indole-treated HeLa cells (colonization resistance); type: cell-based; conditions: host cells treated with indole
# TNF [1] = assay: TNF production in BMDCs, intracellular staining, flow cytometry; type: cell-based, mouse; conditions: 1 mM TDMM 24 hours, LPS (1 ug/ml) 4 hours
# Procedure: Intracellular staining was performed to assess TNF production.
# Intracellular staining was performed to assess TNF (FIG. 3A) and IL-12 (FIG. 3B) production.
# Briefly, bone marrow was harvested from femurs of mice and cultured for 7 days in the presence of DC-skewing cytokines, GM-CSF and IL-4. […] The pro-inflammatory cytokines, IL-6 and IL-12, were specifically queried. […] Immune cells communicate largely through the production of soluble factors including cytokines, and DCs detect these signals and determine their effector functions accordingly.
# (§1) The inventors performed a series of assays where bone marrow derived macrophages (BMDMs), bone marrow derived dendritic cells (BMDCs), and splenic dendritic cells (splenic DCs), were exposed to a series of TDMMs, including indole, indole-3-acetate (I3AT), 5-hydroxyindole (5HI), and indole-3-pyruvate (I3P), as well as indole-3-carbinol (I3C; a plant derived compound) to be used for a positive control (1 mM for 24 hours). The BMDMs and BMDCs were stimulated with LPS for 4 hours and assayed at day 7 for expression of various pro-inflammatory cytokines. In a similar assay, the BMDMs and BMDCs were stimulated with LPS or CpG, respectively, for 15 minutes and assayed for pAKT and pERK signaling, which is a reflection of pro-inflammatory response.
# CCR9 = CCR9 surface expression on BMDCs; type: cell-based, mouse; conditions: BMDCs cultured from day 3 with indole (1 mM) or retinoic acid (1 μM), day 7
# Procedure: FIGS. 12A and 12B graphically illustrate that indole induces CCR9 and B220 on DCs. BMDCs were cultured in the presence of indole (1 mM), retinoic acid (1 μM), or DMF solvent control from day 3. On day 7, DCs were surface stained for expression of CCR9 and B220 and analyzed by flow cytometry. […] Mean of three independent experiments. * indicates p<0.05 for one-way ANOVA followed by Dunnett's post-test.
# Dendritic cell subsets bear numerous surface antigens that regulate their migration and localization. Because indole is produced in the gut and appears to induce anti-inflammatory properties in DCs (as described above), it was hypothesized that indole might affect migration and retention in mucosal tissues. Thus, expression of the gut homing marker, chemokine receptor CCR9 was investigated. […] Retinoic acid (RA) was included as a positive control. RA is present in murine plasma at approximately […] and is predicted to exist at higher concentrations in tissue microenvironments in vivo. Thus, 1 uM was used as a conservative estimate of relevant physiological concentration. Indole's effect was even more profound than that of retinoic acid, a known inducer of mucosal homing markers on T cells (see, e.g., Iwata M, et al. (2004) Retinoic Acid Imprints Gut-Homing Specificity on T Cells. Immunity 21(4):527-538). […]
# TNF [2] = assay: TNF production in splenic macrophages ex vivo; type: cell-based, mouse; conditions: indole overnight
# Procedure: Similarly, the ex vivo indole conditioning of splenocytes was repeated with tissues from AhR-deficient and wild-type mice and analyzed TNF production. […] Importantly, in this set of experiments splenocytes were stimulated with LPS, heat-killed S. typhimurium, and CpG. […] Specifically, BMDMs were generated from WT or AhR-KO mice and treated with indole (1 mM) or DMF control for 18 hours. BMDMs were then stimulated with IL-6 (10 ng/ml) for the given times and stained for phospho-Stat3, which was detected by flow cytometry.
# Erk = assay: phospho-Erk signaling in BMDMs; type: cell-based, mouse
# Procedure: The PI3K/Akt and MAPK/Erk signaling pathways regulate many cellular processes including survival, apoptosis, growth, and cytokine production. […] Specifically, BMDMs were treated with indole (1 mM) or DMF control for 18 hours, then stimulated with LPS (10 ug/ml) or CpG (5 uM) for 30 minutes. Cells were stained for phospho-Akt or phospho-Erk and analyzed by flow cytometry.
# as §1
# AhR = target: T1, AhR (Homo sapiens, UniProt P35869); conditions: cited from earlier work
# T1 construct: host or cells: CaC-2 intestinal cells; yeast; a liver cancer cell line
# T1 sequence (P35869 11-848): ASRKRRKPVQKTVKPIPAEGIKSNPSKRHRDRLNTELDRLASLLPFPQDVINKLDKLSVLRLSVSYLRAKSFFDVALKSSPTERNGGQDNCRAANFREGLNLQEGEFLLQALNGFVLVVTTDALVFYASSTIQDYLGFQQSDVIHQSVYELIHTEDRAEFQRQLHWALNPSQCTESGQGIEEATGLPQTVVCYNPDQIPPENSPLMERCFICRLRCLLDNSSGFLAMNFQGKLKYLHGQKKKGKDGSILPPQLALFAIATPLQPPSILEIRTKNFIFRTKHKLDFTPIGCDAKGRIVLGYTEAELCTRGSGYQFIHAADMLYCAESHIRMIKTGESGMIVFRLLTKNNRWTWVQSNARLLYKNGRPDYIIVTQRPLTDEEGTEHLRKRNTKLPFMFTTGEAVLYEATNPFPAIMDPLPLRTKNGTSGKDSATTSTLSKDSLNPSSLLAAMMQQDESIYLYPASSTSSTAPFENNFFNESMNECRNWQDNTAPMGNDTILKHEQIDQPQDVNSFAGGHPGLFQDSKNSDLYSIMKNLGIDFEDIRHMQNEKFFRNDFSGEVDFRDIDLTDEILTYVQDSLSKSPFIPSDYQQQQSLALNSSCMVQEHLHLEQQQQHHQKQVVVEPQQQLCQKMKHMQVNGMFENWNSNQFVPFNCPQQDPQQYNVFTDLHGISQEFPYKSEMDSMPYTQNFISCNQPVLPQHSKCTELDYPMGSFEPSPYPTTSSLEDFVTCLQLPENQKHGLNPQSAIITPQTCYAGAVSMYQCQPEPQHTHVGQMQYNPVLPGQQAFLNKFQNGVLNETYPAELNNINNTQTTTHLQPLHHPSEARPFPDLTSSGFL
# [3] = Pinero-Fernandez et al. 2011; cited from earlier work
# IL-12 = IL-12 production in splenic CD11c+ DCs ex vivo; conditions: indole overnight, LPS or heat-killed S. typhimurium
# nitric oxide (NO) = assay: Nitric oxide production in DC2.4 and BMDC (Griess reaction)
structure (smiles),measurement,setting,value
"c1ccc2[nH]ccc2c1 [Indole, indole]",reduction of Salmonella invasion of indole-treated HeLa cells,HeLa cells,70%
same,TNF,TNF [1],↓↓
same,surface expression of CCR9 on conditioned DCs,CCR9,34%
same,inhibition of TNF production,"TNF [2]; splenic macrophages from WT or AhR-KO mice, LPS, HK-STM or CpG 6 hours",marked inhibition
same,inhibition of TNF production compared to solvent controls,"TNF [2]; splenic macrophages, LPS or heat-killed S. typhimurium",75%
same,pERK,"Erk; 1 mM TDMM 24 hours, LPS 1 ug/ml 15 minutes",↓
same,dampening of pErk signaling,"Erk; indole 1 mM 18 hours, LPS (10 ug/ml) or CpG (5 uM) 30 minutes",approximately 50%
same,AhR activity in CaC-2 intestinal cells,AhR; previous finding of the inventors,antagonist
same,AhR effect in a liver cancer cell line,AhR; previously reported,antagonistic
same,AhR effect in yeast,AhR; previously reported,agonistic
same,diffusion across membranes,[3],freely diffusible across membranes
same,inhibition of IL-12 production,IL-12,≥ 2 fold
same,secretion of nitric oxide (NO),nitric oxide (NO),intact
